Test results: PubChem BioAssay AID1918999 (Molecular Pharmacology Branch, DTP, NCI, 2023)

Test system: 556581-035-R-J1-PDC complex spheroid growth
Test: Anticancer human tumor 556581-035-R-J1-PDC patient-derived ovarian carcinoma cell line growth inhibition [AhR]
Conditions: for IC50: curve of first compound; for viability, T/C: stronger effect = lower value
How it was run: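 Complex tumor spheroids co-cultured with HUVEC and human MSC stroma; AhR antagonists tested in combination with standard-of-care and investigational agents. Top concentration at or near clinical Cmax (else 10 microM), half-log dilutions; growth expressed as percent test/control.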
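Wherever viability, T/C is given: compound exposure lasted 7 days; 100% = DMSO vehicle control growth.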

Structure (SMILES): CC1(C)CCC(CN2CCN(c3ccc(C(=O)NS(=O)(=O)c4ccc(NCC5CCOCC5)c([N+](=O)[O-])c4)c(Oc4cnc5[nH]ccc5c4)c3)CC2)=C(c2ccc(Cl)cc2)C1 + CC(CO)NC(=O)c1cc(-c2ccc(Cl)cc2)nn(-c2cnn(C)c2)c1=O
- IC50 (second compound 0.1 µM): > 10000 nM
- IC50 (second compound 0.316 µM): > 10000 nM
- IC50 (second compound 1 µM): > 10000 nM
- IC50 (second compound 3.16 µM): > 10000 nM
- IC50 (second compound 10 µM): > 10000 nM
- viability, T/C (second compound 0.1 µM, first compound 0.0316 µM): 99.2%
- viability, T/C (second compound 0.1 µM, first compound 0.1 µM): 111%
- viability, T/C (second compound 0.1 µM, first compound 0.316 µM): 114%
- viability, T/C (second compound 0.1 µM, first compound 1 µM): 90.7%
- viability, T/C (second compound 0.1 µM, first compound 3.16 µM): 96.5%
- viability, T/C (second compound 0.1 µM, first compound 10 µM): 90.1%
- viability, T/C (second compound 0.316 µM, first compound 0.0316 µM): 99.3%
- viability, T/C (second compound 0.316 µM, first compound 0.1 µM): 116%
- viability, T/C (second compound 0.316 µM, first compound 0.316 µM): 102%
- viability, T/C (second compound 0.316 µM, first compound 1 µM): 97.2%
- viability, T/C (second compound 0.316 µM, first compound 3.16 µM): 98.6%
- viability, T/C (second compound 0.316 µM, first compound 10 µM): 82.8%
- viability, T/C (second compound 1 µM, first compound 0.0316 µM): 117%
- viability, T/C (second compound 1 µM, first compound 0.1 µM): 117%
- viability, T/C (second compound 1 µM, first compound 0.316 µM): 105%
- viability, T/C (second compound 1 µM, first compound 1 µM): 106%
- viability, T/C (second compound 1 µM, first compound 3.16 µM): 103%
- viability, T/C (second compound 1 µM, first compound 10 µM): 79.5%
- viability, T/C (second compound 3.16 µM, first compound 0.0316 µM): 104%
- viability, T/C (second compound 3.16 µM, first compound 0.1 µM): 106%
- viability, T/C (second compound 3.16 µM, first compound 0.316 µM): 105%
- viability, T/C (second compound 3.16 µM, first compound 1 µM): 122%
- viability, T/C (second compound 3.16 µM, first compound 3.16 µM): 94%
- viability, T/C (second compound 3.16 µM, first compound 10 µM): 73%
- viability, T/C (second compound 10 µM, first compound 0.0316 µM): 109%
- viability, T/C (second compound 10 µM, first compound 0.1 µM): 115%
- viability, T/C (second compound 10 µM, first compound 0.316 µM): 115%
- viability, T/C (second compound 10 µM, first compound 1 µM): 122%
- viability, T/C (second compound 10 µM, first compound 3.16 µM): 99%
- viability, T/C (second compound 10 µM, first compound 10 µM): 85.7%

Structure (SMILES): CC(C)CC(NC(=O)C(Cc1ccccc1)NC(=O)c1cnccn1)B(O)O (stereo not given) + CC(CO)NC(=O)c1cc(-c2ccc(Cl)cc2)nn(-c2cnn(C)c2)c1=O
- IC50 (second compound 0.1 µM): 5 nM
- IC50 (second compound 0.316 µM): 4.57 nM
- IC50 (second compound 1 µM): 5.43 nM
- IC50 (second compound 3.16 µM): 4.7 nM
- IC50 (second compound 10 µM): 5.22 nM
- viability, T/C (second compound 0.1 µM, first compound 0.000949 µM): 91.6%
- viability, T/C (second compound 0.1 µM, first compound 0.003 µM): 88.4%
- viability, T/C (second compound 0.1 µM, first compound 0.00949 µM): 1.95%
- viability, T/C (second compound 0.1 µM, first compound 0.03 µM): 0.49%
- viability, T/C (second compound 0.1 µM, first compound 0.0949 µM): 0.12%
- viability, T/C (second compound 0.1 µM, first compound 0.3 µM): 0.33%
- viability, T/C (second compound 0.316 µM, first compound 0.000949 µM): 106%
- viability, T/C (second compound 0.316 µM, first compound 0.003 µM): 77.9%
- viability, T/C (second compound 0.316 µM, first compound 0.00949 µM): 1.51%
- viability, T/C (second compound 0.316 µM, first compound 0.03 µM): 2.26%
- viability, T/C (second compound 0.316 µM, first compound 0.0949 µM): 0.2%
- viability, T/C (second compound 0.316 µM, first compound 0.3 µM): 0.8%
- viability, T/C (second compound 1 µM, first compound 0.000949 µM): 105%
- viability, T/C (second compound 1 µM, first compound 0.003 µM): 99.7%
- viability, T/C (second compound 1 µM, first compound 0.00949 µM): 3.31%
- viability, T/C (second compound 1 µM, first compound 0.03 µM): 0.19%
- viability, T/C (second compound 1 µM, first compound 0.0949 µM): 0.15%
- viability, T/C (second compound 1 µM, first compound 0.3 µM): 0.27%
- viability, T/C (second compound 3.16 µM, first compound 0.000949 µM): 85.7%
- viability, T/C (second compound 3.16 µM, first compound 0.003 µM): 81%
- viability, T/C (second compound 3.16 µM, first compound 0.00949 µM): 0.92%
- viability, T/C (second compound 3.16 µM, first compound 0.03 µM): 2.07%
- viability, T/C (second compound 3.16 µM, first compound 0.0949 µM): 1.26%
- viability, T/C (second compound 3.16 µM, first compound 0.3 µM): 1.55%
- viability, T/C (second compound 10 µM, first compound 0.000949 µM): 99.6%
- viability, T/C (second compound 10 µM, first compound 0.003 µM): 94.2%
- viability, T/C (second compound 10 µM, first compound 0.00949 µM): 2.36%
- viability, T/C (second compound 10 µM, first compound 0.03 µM): 0.3%
- viability, T/C (second compound 10 µM, first compound 0.0949 µM): 0.55%
- viability, T/C (second compound 10 µM, first compound 0.3 µM): 0.95%
